Earlier results on two substances are cited in paper PMC6686180 (Biochemistry, 2018).

As usually defined, the Kd is a measure of binding affinity in units of concentration.

Data set [1] deals with FTase. To be noted: FTase binding; cited from earlier work.
Data set [2] deals with SmgGDS-607. The note with it: non-farnesylated versus farnesylated RhoA; cited from earlier work.

GCVLS: the Kd in data set [1] is 0.058 µM.
Turning to “non-farnesylated RhoA: non-farnesylated RhoA of the recent structural study”, in data set [2], the “affinity for SmgGDS-607” value is recorded as “had higher affinity for SmgGDS-607 than farnesylated RhoA”.
